{"source": "patent US10913757B2", "about": "“Hydroxycinnamic derivatives, methods and uses thereof” (UNIVERSIDADE DO PORTO, priority 2016, dated 2021)", "key": {"[1]": {"experiment": "ABTS radical cation scavenging activity (TAC assay)", "format": "biochemical", "details": "ethanol", "from_the_text": "In an embodiment, the AntiOxCINs antioxidant ranking activity hierarchy was established by in vitro non-cell methods. The selected total antioxidant capacity (TAC) assays (DPPH, ABTS and GO) involved the spectrophotometric measurement of the radical absorbance decrease as a result of an in situ radical deactivation by an antioxidant. Compounds with higher antioxidant activity display lower IC50 values. […] This decrease was attenuated/ameliorated by the increment of the spacer length and/or the introduction of additional hydroxyl group in the aromatic ring.\nThe radical scavenging activity of AntiOxCINs was evaluated by means of total antioxidant capacity assays based on DPPH., ABTS.^+ and GO. radicals. All these methods involved the spectrophotometric measurement of the absorbance decrease resulting from radical (DPPH., ABTS.^+ or GO.) deactivation with an antioxidant. The results were expressed in IC50, which is defined as the minimum antioxidant concentration necessary to reduce the amount of radical by 50%. Antioxidant assays were performed in a multiplate reader (Powerwave XS Microplate Reader) of Bio-Tech instruments.\nIn an embodiment, the ABTS.^+ scavenging activity was evaluated as follows: ethanolic solutions of the test compounds with increasing concentrations (range between 10 μM and 500 μM) were prepared. ABTS.^+ radical cation solution was obtained by addition of 150 mM aqueous potassium persulfate solution (163 μL) to 10 mL of 7 mM aqueous ABTS solution followed by storage in the dark at room temperature for 16 h (2.45 mM final concentration). The solution was then diluted in ethanol to reach the absorbance of 0.72±0.02. After addition of the compound (20 μL), in triplicate, to ABTS.^+ solution (180 μL) the spectrophotometric measurement was carried out each minute over 15 minutes. […] Dose-response curves were established for the determination of IC50 values. Data are means±SEM of three independent experiments."}, "[2]": {"experiment": "Redox properties by differential pulse and cyclic voltammetry", "format": "physicochemical", "details": "for reversibility of the oxidation reaction: cyclic voltammetry, physiological pH; for Ep (redox potential): physiological pH (7.4), voltammetry", "experimental": "In an embodiment, and as an example, AntiOxCINs redox properties were evaluated (Table 1). Redox potentials are correlated with the ability of an antioxidant to donate a hydrogen atom and/or an electron to a free radical.\nHowever, for pyrogallol derivatives (AntiOxCIN4, AntiOxCIN5 and AntiOxCIN7), a significant decrease in redox potentials was observed (Ep=0.034-0.057 V) (Table 1).\nThe voltammograms presented a diffusion peak and an adsorption post-peak at a more anodic potential correspondent to the oxidation of dissolved and adsorbed forms of the compounds, respectively. The oxidation waves can be related to the oxidation process of the pyrogallol moiety. The cyclic voltammograms also show the presence of two overlapped anodic peaks. The anodic peaks appeared to correspond to irreversible processes as any distinct reduction wave was not seen on the cathodic sweep. The existence of the additional phenolic group in the pyrogallol systems, when compared with the catechol ones, seems to influence the stabilization of the semiquinone intermediate and in turn the oxidative mechanism.\nIn an embodiment, the electrochemical analytical data was obtained using a computer controlled potentiostat Autolab PGSTAT302N (Metrohm Autolab, Utrecht, Netherlands). Generally, cyclic voltammetry (CV) data was acquired at a scan rate of 50 mVs^−1. Differential pulse voltammetry (DPV) results were acquired at a step potential of 4 mV, pulse amplitude of 50 mV and scan rate of 8 mVs^−1. The electrochemical signals were monitored by the General Purpose Electrochemical System (GPES) version 4.9, software package. All electrochemical experiments were performed at room temperature in an electrochemical cell that was placed in a Faraday cage in order to minimize the contribution of background noise to the analytical signal.\nIn an embodiment, the process of evaluation of AntiOxCINs redox properties was conducted as follows: stock solutions of each compound (10 mM) were prepared by dissolving the appropriate amount in ethanol. The voltammetric working solutions were prepared in the electrochemical cell, at a final concentration of 0.1 mM. The […] supporting electrolyte was prepared by diluting […] to 100 mL. Voltammetric data was acquired in a three-electrode system consisting of a glassy carbon electrode (GCE, d=2 mm) as working electrode, a counter electrode of platinum wire and a saturated Ag/AgCl reference electrode. In an embodiment, the evaluation of AntiOxCINs lipophilic properties was performed as follows: the electrochemical cell was a four-electrode system with arrays of micro liquid-liquid interfaces (μlTIES) containing two Ag/AgCl reference electrodes and two counter electrodes of Pt, one in each phase. The microporous membrane was sealed with a fluorosilicone sealant (Dow Corning 730) onto a glass cylinder which was filled with 4.0 mL of the aqueous phase, where the aliquots of AntiOxCINs solutions were added. The membrane was then immersed into the organic phase contained in the cell. The organic phase reference solution (a 2 mM BTPPACI+2 mM NaCl aqueous solution) was mechanically stabilized The aqueous supporting electrolyte solution was a Tris-HCl buffer 10 mM pH 7.0."}, "[3]": {"system": "rat liver mitochondria (RLM)", "experiment": "Mitochondrial respiration of isolated RLM (Clark-type oxygen electrode)", "format": "biochemical", "details": "for effect on state 3 respiration: all tested concentrations (2.5-10 μM), FIG. 6B-H", "experimental": "In an embodiment, and as an example, AntiOxCINs and MitoQ toxicity effects on the mitochondrial bioenergetics, namely on RLM ΔΨ and mitochondrial respiration parameters, were measured. The […] represents the main component of the electrochemical gradient generated by mitochondrial respiration and accounts for more than 90% of the total available energy. For mitochondrial respiration assays, glutamate/malate (for complex I) and succinate (for complex II) were used as substrates. In addition, the mitochondrial oxidative phosphorylation coupling index, known as respiratory control ratio (RCR, state 3/state 4 respiration) and ADP/O index (the coupling between ATP synthesis and oxygen consumption) were also calculated. AntiOxCINs and MitoQ were tested at antioxidant-relevant concentrations, with 10 μM being the highest concentration.\nIn an embodiment, the evaluation of AntiOxCINs functional mitochondrial toxicity profile was performed in rat liver mitochondria (RLM). […] The protein concentration was determined by the biuret assay using BSA as a standard.\nIn an embodiment, the evaluation of AntiOxCINs effect on mitochondrial respiration was performed as follows: the respiration of isolated RLM was evaluated polarographically with a Clark-type oxygen electrode, connected to a suitable recorder in a 1 mL thermostated water-jacketed chamber with magnetic stirring, at 37° C.^1. […] Increasing concentrations of AntiOxCINs (2.5-10 μM) were added to the reaction medium containing respiratory substrates glutamate/malate (10 mM and 5 mM respectively) or succinate (5 mM) and RLM (1 mg) and allowed to incubate for a 5 min period prior to the assay. State 2 was considered as the respiration during the 5 min incubation time with AntiOxCINs. […] State 4 was determined after ADP phosphorylation finished. Subsequent addition of oligomycin (2 μg/ml) inhibited ATP-synthase and originated the oligomycin-inhibition respiration state. Finally, 1 μM FCCP was added to induce uncoupled respiration."}}, "note": "pIC50: −log10 of the molar value."}
{"smiles": "CS(=O)(=O)[O-].O=C(/C=C/c1ccc(O)c(O)c1)NCCCCCC[P+](c1ccccc1)(c1ccccc1)c1ccccc1", "note": "[AntiOxCIN2, (E)-(6-(3-(3,4-dihydroxyphenyl)prop-2-enamido)hexyl)triphenylphosphonium methanesulfonate]", "values": [{"measurement": "pIC50", "setting": "[1]", "value": 4.52}, {"measurement": "reversibility of the oxidation reaction", "setting": "[2]", "value": "reversible reaction"}, {"measurement": "Ep (redox potential)", "setting": "[2]; listed as AntiOxClN2, methanesulfonate", "value": 0.164, "unit": "V"}, {"measurement": "effect on state 3 respiration", "setting": "[3]", "value": "decrease"}, {"measurement": "ADP/O", "setting": "[3]; glutamate/malate, 2.5 μM", "value": "2.4 ± 0.04"}, {"measurement": "RCR (respiratory control ratio, state 3/state 4)", "setting": "[3]; glutamate/malate, 2.5 μM", "value": "5.2 ± 1.0"}, {"measurement": "ADP/O", "setting": "[3]; glutamate/malate, 5 μM", "value": "2.2 ± 0.1"}, {"measurement": "RCR (respiratory control ratio, state 3/state 4)", "setting": "[3]; glutamate/malate, 5 μM", "value": "3.9 ± 0.6"}, {"measurement": "ADP/O", "setting": "[3]; glutamate/malate, 10 μM", "value": "2.2 ± 0.1"}, {"measurement": "RCR (respiratory control ratio, state 3/state 4)", "setting": "[3]; glutamate/malate, 10 μM", "value": "3.4 ± 0.3"}, {"measurement": "ADP/O", "setting": "[3]; succinate, 2.5 μM", "value": "1.4 ± 0.1"}, {"measurement": "RCR (respiratory control ratio, state 3/state 4)", "setting": "[3]; succinate, 2.5 μM", "value": "3.3 ± 0.2"}, {"measurement": "ADP/O", "setting": "[3]; succinate, 5 μM", "value": "1.3 ± 0.1"}, {"measurement": "RCR (respiratory control ratio, state 3/state 4)", "setting": "[3]; succinate, 5 μM", "value": "3.3 ± 0.2"}, {"measurement": "ADP/O", "setting": "[3]; succinate, 10 μM", "value": "1.1 ± 0.1"}, {"measurement": "RCR (respiratory control ratio, state 3/state 4)", "setting": "[3]; succinate, 10 μM", "value": "2.1 ± 0.2"}]}
{"smiles": "O=C(O)/C=C/c1ccc(O)c(O)c1", "note": "[Caffeic acid, caffeic acid, reference compound]", "values": [{"measurement": "pIC50", "setting": "[1]", "value": 4.75}, {"measurement": "reversibility of the oxidation reaction", "setting": "[2]", "value": "reversible reaction"}, {"measurement": "Ep (redox potential)", "setting": "[2]", "value": 0.168, "unit": "V"}, {"measurement": "toxicity toward the mitochondrial bioenergetic apparatus", "setting": "[3]; RLM", "value": "low toxicity"}]}
{"smiles": "CS(=O)(=O)[O-].O=C(/C=C/c1cc(O)c(O)c(O)c1)NCCCCCCCC[P+](c1ccccc1)(c1ccccc1)c1ccccc1", "note": "[AntiOxCIN5, (E)-(8-(3-(3,4,5-trihydroxyphenyl)acrylamido)octyl)triphenylphosphonium methanesulfonate]", "values": [{"measurement": "pIC50", "setting": "[1]", "value": 5.06}, {"measurement": "reversibility of the oxidation reaction", "setting": "[2]", "value": "irreversible oxidation reaction"}, {"measurement": "Ep (redox potential)", "setting": "[2]; listed as AntiOxClN5, methanesulfonate", "value": 0.046, "unit": "V"}, {"measurement": "effect on state 3 respiration", "setting": "[3]", "value": "increase"}, {"measurement": "ADP/O", "setting": "[3]; glutamate/malate, 2.5 μM", "value": "2.4 ± 0.1"}, {"measurement": "RCR (respiratory control ratio, state 3/state 4)", "setting": "[3]; glutamate/malate, 2.5 μM", "value": "3.7 ± 0.4"}, {"measurement": "ADP/O", "setting": "[3]; glutamate/malate, 5 μM", "value": "2.5 ± 0.1"}, {"measurement": "RCR (respiratory control ratio, state 3/state 4)", "setting": "[3]; glutamate/malate, 5 μM", "value": "3.7 ± 0.4"}, {"measurement": "ADP/O", "setting": "[3]; glutamate/malate, 10 μM", "value": "2.5 ± 0.1"}, {"measurement": "RCR (respiratory control ratio, state 3/state 4)", "setting": "[3]; glutamate/malate, 10 μM", "value": "3.2 ± 0.1"}, {"measurement": "ADP/O", "setting": "[3]; succinate, 2.5 μM", "value": "1.6 ± 0.1"}, {"measurement": "RCR (respiratory control ratio, state 3/state 4)", "setting": "[3]; succinate, 2.5 μM", "value": "4.2 ± 0.4"}, {"measurement": "ADP/O", "setting": "[3]; succinate, 5 μM", "value": "1.5 ± 0.1"}, {"measurement": "RCR (respiratory control ratio, state 3/state 4)", "setting": "[3]; succinate, 5 μM", "value": "4.4 ± 0.8"}, {"measurement": "ADP/O", "setting": "[3]; succinate, 10 μM", "value": "1.6 ± 0.1"}, {"measurement": "RCR (respiratory control ratio, state 3/state 4)", "setting": "[3]; succinate, 10 μM", "value": "4.0 ± 0.8"}]}
{"smiles": "CS(=O)(=O)[O-].O=C(/C=C/c1ccc(O)c(O)c1)NCCCCCCCCCC[P+](c1ccccc1)(c1ccccc1)c1ccccc1", "note": "[AntiOxCIN6, (E)-(10-(3-(3,4-dihydroxyphenyl)acrylamido)decyl)triphenylphosphonium methanesulfonate]", "values": [{"measurement": "pIC50", "setting": "[1]", "value": 4.63}, {"measurement": "reversibility of the oxidation reaction", "setting": "[2]", "value": "reversible reaction"}, {"measurement": "Ep (redox potential)", "setting": "[2]; listed as AntiOxClN6, methanesulfonate", "value": 0.174, "unit": "V"}, {"measurement": "effect on state 3 respiration", "setting": "[3]", "value": "increase"}, {"measurement": "ADP/O", "setting": "[3]; glutamate/malate, 2.5 μM", "value": "2.5 ± 0.1"}, {"measurement": "RCR (respiratory control ratio, state 3/state 4)", "setting": "[3]; glutamate/malate, 2.5 μM", "value": "3.1 ± 0.3"}, {"measurement": "ADP/O", "setting": "[3]; glutamate/malate, 5 μM", "value": "2.5 ± 0.2"}, {"measurement": "RCR (respiratory control ratio, state 3/state 4)", "setting": "[3]; glutamate/malate, 5 μM", "value": "3.3 ± 0.2"}, {"measurement": "ADP/O", "setting": "[3]; glutamate/malate, 10 μM", "value": "2.3 ± 0.1"}, {"measurement": "RCR (respiratory control ratio, state 3/state 4)", "setting": "[3]; glutamate/malate, 10 μM", "value": "2.6 ± 0.1"}, {"measurement": "ADP/O", "setting": "[3]; succinate, 2.5 μM", "value": "1.5 ± 0.1"}, {"measurement": "RCR (respiratory control ratio, state 3/state 4)", "setting": "[3]; succinate, 2.5 μM", "value": "3.7 ± 0.6"}, {"measurement": "ADP/O", "setting": "[3]; succinate, 5 μM", "value": "1.5 ± 0.1"}, {"measurement": "RCR (respiratory control ratio, state 3/state 4)", "setting": "[3]; succinate, 5 μM", "value": "3.2 ± 0.3"}, {"measurement": "ADP/O", "setting": "[3]; succinate, 10 μM", "value": "1.6 ± 0.11"}, {"measurement": "RCR (respiratory control ratio, state 3/state 4)", "setting": "[3]; succinate, 10 μM", "value": "2.6 ± 0.3"}]}
